Laboratory results: ChEMBL document CHEMBL3507680, “University of Dundee, Gates Library screen for HepG2 cell viability”

Assay: Human HepG2 cell viability assay in 384 well format
Format: toxicity, cell-based
Design: dose 125 nL, time 70.5 hour; concentration not given beside the values
Conditions: HepG2 cells, read-out: Inhibition

Row | Structure (SMILES) | cytotoxicity at 70.5 h [%]
1 | CC(C)(C)C(=O)N1CCC2(COCc3cnc(N4CCOCC4)nc32)C1 (configuration not stated) | -19.1
2 | CC(NC(=O)Nc1ccc(-n2cncn2)cc1)C(=O)NC(C)(C)C (configuration not stated) | -29.6
3 | COc1ncccc1C(=O)N1CC[C@H]2C[C@@H](c3nccs3)O[C@@H]2C1 | -23.1
4 | Cc1cnc(N2CCCC3(COCCN(c4nccs4)C3)C2)nc1 (configuration not stated) | -8.41
5 | COc1ccc(/C=C/CN2CCC3(CC2)CN(C)C(=O)O3)cc1 | -6.12
6 | CC(NC(=O)COc1ccccc1Cl)c1nnc2n1CCC2 (configuration not stated) | -6.92
7 | Cc1cccc(N2CCCN=C2NC(=O)c2cccc(Cl)c2)c1 | -9.98
8 | CNC(=O)[C@H]1C[C@@H]2CN(C(=O)Nc3ccccc3)C[C@H]1O2 | -25.2
9 | CC(=O)N[C@@H]1CN(C(=O)c2ccncc2)C[C@H]1c1ccc(C)cc1 | -3.8
10 | Cc1cnn(CC2CN(CC(=O)Nc3nnc(C)s3)CCO2)c1 (configuration not stated) | -9.05
11 | CN(C)c1ccc(C(=O)N2CCCCC2CC(N)=O)c(F)c1 (configuration not stated) | -1.41
12 | CCC(=O)N1CCCc2c(cnn2C)C1 | 23.9
13 | CCO[C@H]1CO[C@@]2(CCCN(Cc3nc(C)cs3)C2)C1 | -10.1
14 | CSC(C)(C)CNC(=O)NC(c1nnc2n1CCC2)C(C)C (configuration not stated) | -3.59
15 | Cc1c(NCc2ccccc2C#N)cccc1-n1cnnn1 | -3.47
16 | Cc1cc(C2CCC2)nc(NCC(C)(C)N2CCOCC2)n1 | 15.4
17 | O=C(CC1CN(Cc2ccccc2)CCO1)NCCN1CCOCC1 (configuration not stated) | 37.5
18 | O=C(NC1CCS(=O)(=O)C1)c1ccc(-c2ccc(F)cc2)s1 (configuration not stated) | -0.198
19 | Cc1nn(C)c2c(N3CCN(C(=O)C4CCCCC4)CC3)ncnc12 | 14.6
20 | Cc1nc(NC(=O)CCN2C(=O)c3ccccc3NC2C(C)C)sc1C (configuration not stated) | -0.712
21 | CCC(C)(CC(=O)OC)NCc1cc(C)on1 (configuration not stated) | -11
22 | COc1ccc2c(c1)C(C(=O)N(C)CCCc1cnn(C)c1)CC(=O)N2 (configuration not stated) | -12.9
23 | Cc1cc(CN2C[C@@H](N3CCN(C)CC3)[C@H]3OCCC[C@H]32)oc1C | -4.18

Row | Structure (SMILES) | cytotoxicity at 70.5 h [%]
24 | Clc1ccc(N2CCC(C3CCN(Cc4cccnc4)CC3)C2)nc1 (configuration not stated) | -8.52
25 | O=C1NC2(CCN(C/C=C/c3ccccc3)CC2)CC1c1ccccc1 (configuration not stated) | 10.6
26 | O=C(O)c1ccnc(-c2ccnc(N3CCC4(CCO4)CC3)n2)c1 | -11.6
27 | c1cc2n(n1)CC(CNCc1ccc(OC3CCCCC3)nc1)CN2 (configuration not stated) | 0.985
28 | CC(C)C(Sc1ccccc1)C(=O)N(C)Cc1nnc2n1CCC2 (configuration not stated) | 25.6
29 | Cc1ccc(-n2c(C)nnc2SCC(O)COCc2ccco2)cc1 (configuration not stated) | -5.42
30 | Cn1ccnc1-c1cccc(NC(=O)NCCCN2CCOCC2)c1 | -2.94
31 | Cc1cc(C)n(CCCN(C)Cc2cn[nH]c2-c2ccc(F)cc2)n1 | -9.49
32 | Cn1ncc(N2CCOCC2)c(Cl)c1=O | -7.54
33 | Cc1ccc(C2COCCN2C(=O)c2ccc(C)s2)o1 (configuration not stated) | -9.04
34 | CSCc1ccc(C(=O)NCCCNc2ccc(C(F)(F)F)cn2)cc1 | -13.3
35 | CN(C)C(=O)CC1CC2(CCN(Cc3ccco3)CC2)c2ccccc21 (configuration not stated) | -27.6
36 | CC[C@@H]1N(CC2CC2)CCC[C@]12CCC(=O)N2CCOC | -9.87
37 | Cc1ncoc1C(=O)N1CCCC(C(=O)c2cccc(OC(C)C)c2)C1 (configuration not stated) | -8.43
38 | CC(Nc1ccc(CN2CCCC2=O)cc1)c1ccc(C#N)cc1 (configuration not stated) | -5.25
39 | O=C(CC1CCCC1)N1CCOC(c2nc(-c3ncccn3)no2)C1 (configuration not stated) | -1.63
40 | c1cncc(C2COC3(CCN(CC4CCOCC4)CC3)C2)c1 (configuration not stated) | 1.21
41 | Cn1ccc(CS(=O)(=O)Cc2cccc(F)c2)cc1=O | -11
42 | CCN(Cc1ccccc1)C(=O)c1cc(C2CCCN2C)ccn1 (configuration not stated) | 10.8
43 | COc1ccc(C2(NC(=O)c3ccc(=O)n(C)n3)CCCC2)cc1 | -12.4
44 | Cc1cc(=O)[nH]c(SC(C)C(=O)N2CCCN(C3CCCC3)CC2)n1 (configuration not stated) | 6.46
45 | Cc1ccc(C(=O)N2CCCC2c2nnc3n2CCCCC3)o1 (configuration not stated) | -7.2
46 | Cc1nsc(N2CCN(C(=O)Nc3cccc(F)c3)CC2)n1 | 13.5

Row | Structure (SMILES) | cytotoxicity at 70.5 h [%]
47 | O=C(NC[C@H]1C[C@@H]2CCN1C[C@@H]2CN1CCOCC1)Nc1ccsc1 | -12.4
48 | COCCOc1ncccc1C(=O)N1CCCCC1c1nccs1 (configuration not stated) | -3.02
49 | Cc1ccc2cc(CNCCCN3CCOCC3)c(=O)[nH]c2c1C | -8.68
50 | NC(=O)c1ccc(C(=O)N2CCCC(n3ccnc3)C2)s1 (configuration not stated) | -2.91
51 | O=C(N1CCOCC1)N1C[C@H]2CN(Cc3nccs3)C[C@H]2C1 | 3.41
52 | CC(=O)N1CCOCC(Cc2ccc3c(ccn3C)c2)C1 (configuration not stated) | -0.747
53 | COc1cc(Cl)c(CN2CCC(C(N)=O)C2)cc1Cl (configuration not stated) | 4.93
54 | CN(C)C[C@@H]1CN(C2CCN(c3ccccc3Cl)CC2)C[C@@H]1CO | -14.4
55 | Cc1nc(NCC2CC2)nc2c1COCC21CCN(C)C1 (configuration not stated) | -3.52
56 | COc1ccc(CN2C[C@@H](F)[C@@H](OCc3nc4ccccc4[nH]3)C2)cn1 | -2.98
57 | CN1CCN(Cc2cccnc2)C(=O)C12CCN(C1CCOC1)CC2 (configuration not stated) | -5.29
58 | O=c1[nH]c2nc(N3CCOCC3)ncc2c(=O)n1-c1cccc(F)c1 | -2.92
59 | O=C(N1CCCC1)N1CCC[C@]2(C[C@@H](OCc3ccncc3)CO2)C1 | -10.6
60 | COCCN1C(=O)CC(N2CCN(c3ccc(OC)cc3)CC2)C1=O (configuration not stated) | -7.1
61 | O=S(=O)(c1ccc(N2CCCCC2)c2nonc12)N1CCCCC1 | -11.2
62 | Cc1nc(C2CCCN2CCS(C)(=O)=O)no1 (configuration not stated) | 21.3
63 | O=C(CN1C(=O)CCC1=O)NCc1nn(C2CCCC2)c2c1CCCC2 | -2.19
64 | Cc1ccnn1CCCNC(=O)C1CCN(S(C)(=O)=O)CC1 | -1.25
65 | CS(=O)(=O)Cc1ccc(Cl)c(NCc2noc(C3CC3)n2)c1 | 0.67
66 | Cc1noc(C2CCCN(C(=O)c3ccc(N(C)C)nc3)C2)n1 (configuration not stated) | -8.13
67 | COCCc1noc(CN(C)c2nccc(C)n2)n1 | -6.87
68 | O=C(c1cccc(OC2CCCC2)c1)N1CCCC(n2cncn2)C1 (configuration not stated) | 5.3
69 | CC(C)c1noc(CN2CCC(C3CCCCCN3S(C)(=O)=O)CC2)n1 (configuration not stated) | 11

Row | Structure (SMILES) | cytotoxicity at 70.5 h [%]
70 | CO[C@H]1CC[C@H]2[C@H]1OCCN2Cc1ccc(F)cc1 | 9.89
71 | CCCC(=O)N(CCCN1CCOCC1)c1nc2c(C)ccc(Cl)c2s1 | -3.12
72 | CCC(=O)NCc1ccc(N2CCCCC2)cc1 | -2.28
73 | CC(NC(=O)NCCCn1cncn1)c1ccc2c(c1)CC(=O)N2 (configuration not stated) | -1.37
74 | CC(C)OC(=O)CCNC(=O)Nc1cccc2ncccc12 | 8.18
75 | COc1ccc(C[C@H]2CN(C(=O)CN(C)C)CC[C@H]2OC)cc1 | -6.67
76 | COCCN1CCN(CCS(C)(=O)=O)CC1C (configuration not stated) | 8.39
77 | CC1CCCCN1Cc1ccc(-c2ccccc2C(=O)O)cc1 (configuration not stated) | 0.911
78 | Cc1nc(C)c(CN2CCOC[C@H](Oc3cnccn3)C2)s1 | -7.51
79 | CCN(CCCNC(=O)Nc1ccccc1C(C)C)S(C)(=O)=O | -4.67
80 | O=C(C1CCCO1)N1CCC(c2nc(-c3ccccc3)n[nH]2)CC1 (configuration not stated) | 1.35
81 | CCOC(=O)CCNC(=O)N1CCOC(Cc2cccc(OC)c2)C1 (configuration not stated) | -9.71
82 | CN1N=C(C(=O)N2CCCC(n3ccnc3)C2)CCC1=O (configuration not stated) | -7.88
83 | CC1CCCN1C1CCN(C(=O)c2cccc(-c3ccoc3)c2)CC1 (configuration not stated) | 10.8
84 | CC1(c2ncc(CN3CCOCC3)cn2)CCCCO1 (configuration not stated) | -1.05
85 | Cc1ccnc(C2(C)CCCN2S(=O)(=O)c2ccccc2)n1 (configuration not stated) | 16.3
86 | CC(=O)N1N=C(Cc2ccccc2)OC1C(=O)NCC(=O)OC(C)(C)C (configuration not stated) | -4.37
87 | CC(C)n1c(=O)nc2n1C(=O)N(c1ccc(Cl)cc1)C2 | -21.8
88 | COc1ccc(NC2(C(=O)N3CCCn4cncc4C3)CCCC2)cc1 | -13
89 | Cc1nc(CN2CCc3ncnc(C4CC4)c3CC2)cs1 | -2.07
90 | COCC1c2nnn(C)c2CCN1C(=O)Cc1ccc2c(c1)OCO2 (configuration not stated) | 9.52
91 | Cc1cc(C)c(CNC(=O)NCC2COc3ccccc3C2)c(=O)[nH]1 (configuration not stated) | -10.2
92 | Cc1ccsc1CNC(=O)CCc1c(C)nc2cc(O)nn2c1C | -10.8

Row | Structure (SMILES) | cytotoxicity at 70.5 h [%]
93 | Cc1cc2nc(CN(C)c3ccc(Cl)cc3)cc(=O)n2o1 | 22
94 | COC(=O)C1CCN(C(=O)c2ccc(C)c(NS(C)(=O)=O)c2)CC1 | -8.87
95 | CN1CCc2nc(C3CCCN(S(=O)(=O)c4ccccc4)C3)ncc2C1 (configuration not stated) | -1.43
96 | Cc1noc(C2CN(CC(=O)NCC3CCCO3)C2)n1 (configuration not stated) | -3.62
97 | Cc1ccc(NC(=O)CN(C)C(=O)c2ccc(-n3cccc3)nc2)nc1 | -1.66
98 | Cc1cccc(CN2CCCC3(CCN(CC(=O)N(C)C)C3=O)C2)n1 (configuration not stated) | -13.1
99 | Cc1csc(NC(=O)c2cccnc2N2CCOCC2)n1 | 18.7
100 | CCCNC(=O)c1cncc(CC2CCCN(C)C2)c1 (configuration not stated) | -6.34
101 | CC(=O)Nc1ccc(SCC(O)COCc2ccco2)cc1 (configuration not stated) | -12
102 | Cc1ccsc1C(=O)NCC1COCc2c(C)nnn2C1 (configuration not stated) | -1.54
103 | O=C1OC2(CCN(C3CCCOC3)CC2)CN1CCc1ccccc1 (configuration not stated) | 5.31
104 | Cc1occc1C(=O)N1C[C@@H]2OCCN(CCN3CCCC3)[C@@H]2C1 | -3.12
105 | CN1C(=O)CO[C@H](c2ccc(NC(=O)Cc3cccs3)cc2)[C@H]1CO | -6.23
106 | CCCN(Cc1ccccc1O)C(=O)Nc1cnn(CCOC)c1 | -12.8
107 | CC(C)c1nnc(CN2CCCC2C(=O)OCc2ccccc2)o1 (configuration not stated) | -10.4
108 | CCCC(O)CN1CCC(=O)N(CCOC)Cc2ccccc21 (configuration not stated) | -10.1
109 | Cc1ncsc1CCC(=O)NC1CCN(Cc2cccs2)CC1 | -11.5
110 | O=C(CC1COCCN1S(=O)(=O)c1ccccc1)NCc1ccccn1 (configuration not stated) | -15.7
111 | Cc1nc(C)n(CCC(=O)N2CCc3ncc(Cl)cc3C2)n1 | 6.03
112 | Cc1cc(C)c2c(NC(C)c3nncn3C3CCCC3)ncnc2n1 (configuration not stated) | -4.92
